# From patent US20090186838A1, “Amphotericin Derivatives” (Eidgenössische Technische Hochschule Zürich, priority 2006, published 2009)
# Where “and” joins values, the source holds several entries; their conditions need not be identical. Identical values can stand only once. Like-named read-outs stand apart in the source and are kept apart here.
# Legend:
# [1] = system: CAF2-1 C. albican wt; assay: MIC determination in Candida strain CAF2-1; format: cell-based, Candida albicans
# Method: (§1) In Vitro Antifungal Activity. MIC values for various strains were determined in accordance with the standard protocol from the National Committee of Clinical Laboratory Standards but using YEPD liquid medium instead of RPMI-1640 medium (National Committee of Clinical Laboratory Standards (Reference Method for Broth Dilution Antifungal Susceptibility Testing of Yeast, M27-A2, Approved Standard-Second Edition, Volume 22, Number 15, 1995). AmB was used as a reference. The strains were cultivated overnight in 5 mL YEPD liquid medium at 30 to 37° C. (30° C. for the strain BY4741; 37° C. for the strain DSY1764) with constant shaking. The saturated cultures were diluted to an ODB600 of 0.1 (3×10P^7 cells/mL). Using 24 wells plate, each well was prepared by adding 1% (12 μL) of DMSO solution of the tested polyene macrolide with 1% (12 μL) yeast cells solution and completed with YEPD (1.176 mL). The plates were sealed with Parafilm and then incubated for 18 to 36 hours at 30 to 37° C. (18 hours at 30° C. for the strain BY4741; 36 hours at 37° C. for the strain DSY1764). The optical density was read at 600 nm using 1.5 mL cuvettes. The MIC value was defined as the drug concentration needed to inhibit growth, less than 5% compared to a drug-free culture.
# (§2) MIC values of the polyene macrolides 3, 9 and 10 (Diamine-AmB and its ester and diamide derivative, respectively) in various Candida strains including an AmB-resistant strain C. albicans (DSY1764, with the genotype erg3AΔ::hisG/erg3BΔ::hisG erg11Δ::hisG/erg11Δ::hisG-URA3-hisG) were determined.
# [2] = system: DSY-565 C. glabrata CI; assay: MIC determination in Candida strain DSY-565; format: cell-based
# Method: as §1, §2
# [3] = system: DSY-562 C. glabrata CI; assay: MIC determination in Candida strain DSY-562; format: cell-based
# Method: as §1, §2
# [4] = system: human erythrocytes; assay: Hemolytic assay (EH50); format: cell-based; details: for EH50: concentration that led to 50% hemolysis of human erythrocytes, one hour at 37° C.
# Method: Hemolytic Assay. The hemotoxicity of the polyene macrolide derivatives of the invention was determined by measuring the toxicity towards human erythrocytes (EH50 value) using an established assay (Kinsky, S. C. et al., Biochem. Biophys. Res. Comm. 1962, 9, 503). Human blood, anticoagulated with citrate or EDTA, was centrifuged (2000×g) at 4° C. for 10 minutes. The pellets were washed three times with PBS buffer (pH 7.2 with 2 g/L glucose) and then diluted to a concentration of 4% (4×10^8 cells/mL). All experiments were done in triplo and the total volume for the hemolysis tubes was 1.4 ml. The solutions were prepared by adding 1% (14 μL) of DMSO solution of the tested compound with […] of PBS buffer and completed with 750 μL of 4% erythrocytes. After one hour incubation at 37° C., the samples were centrifuged (1500×g) at 4° C. for 5 min and the absorbance of the supernatant was measured at 560 nm. The concentration that led to 50% hemolysis (EH50) was intrapolated graphically. The value for the 100% hemolysis was obtained by the treatment with 100 μM of AmB.
# The toxicity of AmB (1a) and the polyene macrolides 3, 9 and 10 towards human erythrocytes was examined using the above described hemolysis assay (Table 3).
# [5] = Solubility assay; format: physicochemical; details: DMSO stock added to PBS buffer solution pH 7.2, precipitation point by light scattering at 600 nm
# Method: Solubility assay. The solubility assay was performed according to Lipinski, C. A. et al Advances Drug Delivery Reviews 2001, 46, 3-26. Typically, a compound of the invention was dissolved in DMSO at a concentration of 10 μg/μl. The so obtained solution was added in […] at 1 min intervals to 2.5 ml PBS buffer solution pH 7.2. These additions correspond to solubility increments of 5 μg/ml to a top value of 65 μg/ml. A total of 14 additions were made and each time increased UV absorbance from light scattering was measured at 600 nm. The precipitation point was calculated from a bilinear curve fit to the Absorbance (y axis) versus μl of DMSO (x axis) plot.
# The solubility of the polyene macrolides of the invention in water was tested following the above described protocol. Clearly, all conjugates were more soluble in water then AmB.
# [6] = system: DSY-296 C. albican CI; assay: MIC determination in Candida strain DSY-296; format: cell-based, Candida albicans
# Method: as §1, §2
# [7] = system: Saccharomyces cerevisiae wild type BY4741; assay: MIC determination in Saccharomyces cerevisiae wild type BY4741; format: cell-based; details: for MIC: read-out: MIC
# Method: as §1
# MIC values of various polyene macrolides of the invention in Saccharomyces cerevisiae wild type BY4741, a derivative of S288C, (with AmB as a reference) were determined as described hereinabove.
# Based on the remarkable performance observed with the Diamine-AmB conjugate similar modifications of the aminosugar moiety were made on other polyene macrolides, such as for example Nystatin (1b) and Pimaricin (1c). The antifungal activity of these nystatin and pimaricin conjugates bearing two aminopropyl side chains was measured using Saccharomyces cerevisiae wild type BY4741.
# [8] = system: DSY-1764 C. albican mutant erg3/11 (AmB-resistant strain); assay: MIC determination in AmB-resistant Candida strain DSY-1764; format: cell-based, Candida albicans
# Method: as §1, §2
# [9] = system: DSY-294 C. albican CI; assay: MIC determination in Candida strain DSY-294; format: cell-based, Candida albicans
# Method: as §1, §2
# [10] = system: DSY-654 C. albican mutant cdr1/2; assay: MIC determination in Candida strain DSY-654; format: cell-based, Candida albicans
# Method: as §1, §2
# [11] = system: DSY-1751 C. albican mutant erg3; assay: MIC determination in Candida strain DSY-1751; format: cell-based, Candida albicans
# Method: as §1, §2
# [12] = K+ efflux assay, cholesterol containing vesicles; details: lower concentration, 0.1 μM (FIG. 3a,c,e,g)
# Method: (§3) FIG. 3. K^+ efflux from vesicles (LUVET100) prepared from […] (POPC) (solid line) or POPC with sterols (dotted line) for ergosterol and (broken line) for cholesterol caused by AmB (1a) (FIGS. 3a,b) and AmB diamine 3 (FIG. 3c,d), AmB diamine ester 9 (FIG. 3e,f) and AmB diamine amide 10 (FIG. 3g,h), added in DMSO to a suspension of vesicles to give final concentrations of 0.1 μM (FIG. 3a,c,e,g) and 1.0 μM (FIG. 3b,d,f,h).
# K+ efflux assay. The K^+ efflux measurements were made following a previously described procedure (Zumbuehl, A. et al., Angew. Chem. Int. Ed. 2004, 43, 5181-5185; Zumbuehl, A. et al., Org. Lett. 2004, 6, 3683-3686). The appropriate liposome suspensions were prepared using POPC, cholesterol and ergosterol. Then the liposomes were sized by extrusion through two 400 nm, 200 nm, and finally 100 nm pore size membrane. The resultant “100 nm” unilamellar liposomes were dialyzed against 600 mL of 150 mM NaCl, 5 mM HEPES (pH 7.4) buffer. After, the suspension was diluted with 150 mM NaCl, 5 mM HEPES (pH 7.4) buffer to 1 mM overall lipid concentration (phospholipids+sterols). For each efflux measurement 10 mL of this liposome suspension was placed in a small beaker. Potentiometric measurements were performed with a 16-channel electrode monitor in magnetically stirred solutions at ambient temperature. The reference electrode was a Metrohm double junction Ag/AgCl reference electrode with 3 M KCl as reference electrolyte and 1 M LiOAc as bridge electrolyte. After recording the amphotericin-induced potassium efflux, liposomes were lysed by adding sodium cholate (172 mg). The resulting reading (taken after 0.5 h) was used to quantify the 100% K+-release.
# As described hereinbefore differential interaction between ergosterol found in fungal membranes and cholesterol in mammalian cells is considered the basis for the selectivity of AmB (1a) as an antifungal agent. The preferential stabilization of ion channel formation in the membrane by ergosterol ultimately results in electrolyte leakage which can be conveniently measured by K^+ efflux from sterol containing vesicles. To assess the interaction of the polyene macrolide derivatives of the invention with sterols, derivatives 3, 9 and 10 were examined in their ability to lead to K^+ efflux from large unilamellar vesicles (LUV) prepared from POPC (1-palmitoyl-2-oleoyl-sn-glycero-3-phosphocholine) admixed with sterols, mimicking conditions in natural biomembranes (FIG. 3). At high concentration (FIG. 3b,d,f,h), all compounds rapidly induce complete K^+ efflux from vesicles containing ergosterol (dotted line). […] This differentiation between ergosterol and cholesterol is consistent with the observation of reduced hemotoxicity of 3, 9 and 10.
# [13] = K+ efflux assay, ergosterol containing vesicles; details: lower concentration, 0.1 μM (FIG. 3a,c,e,g)
# Method: as §3
# K+ efflux assay. The K^+ efflux measurements were made following a previously described procedure (Zumbuehl, A. et al., Angew. Chem. Int. Ed. 2004, 43, 5181-5185; Zumbuehl, A. et al., Org. Lett. 2004, 6, 3683-3686). The appropriate liposome suspensions were prepared using POPC, cholesterol and ergosterol. Then the liposomes were sized by extrusion through two 400 nm, 200 nm, and finally 100 nm pore size membrane. The resultant “100 nm” unilamellar liposomes were dialyzed against 600 mL of 150 mM NaCl, 5 mM HEPES (pH 7.4) buffer. After, the suspension was diluted with 150 mM NaCl, 5 mM HEPES (pH 7.4) buffer to 1 mM overall lipid concentration (phospholipids+sterols). For each efflux measurement 10 mL of this liposome suspension was placed in a small beaker. Potentiometric measurements were performed with a 16-channel electrode monitor in magnetically stirred solutions at ambient temperature. The reference electrode was a Metrohm double junction Ag/AgCl reference electrode with 3 M KCl as reference electrolyte and 1 M LiOAc as bridge electrolyte. […] The resulting reading (taken after 0.5 h) was used to quantify the 100% K+-release.
# As described hereinbefore differential interaction between ergosterol found in fungal membranes and cholesterol in mammalian cells is considered the basis for the selectivity of AmB (1a) as an antifungal agent. The preferential stabilization of ion channel formation in the membrane by ergosterol ultimately results in electrolyte leakage which can be conveniently measured by K^+ efflux from sterol containing vesicles. […]
# [14] = Saccharomyces cerevisiae wild type BY4741, YEPD liquid medium, 18 hours at 30° C.
Compound,EH50 [4],"MIC [7, 14]",MIC ([1]; Candida albicans),MIC ([2]; Nakaseomyces glabratus),MIC ([3]; Nakaseomyces glabratus),"MIC ([8]; Candida albicans, 36 h)",MIC ([11]; Candida albicans),also measured
"C[C@@H]1[C@H](O)[C@@H](C)/C=C/C=C/C=C/C=C/C=C/C=C/C=C/[C@H](O[C@@H]2O[C@H](C)[C@@H](O)[C@H](N)[C@@H]2O)C[C@@H]2O[C@](O)(C[C@@H](O)C[C@@H](O)[C@H](O)CC[C@@H](O)C[C@@H](O)CC(=O)O[C@H]1C)C[C@H](O)[C@H]2C(=O)O [AmB, Amphotericin B, reference compound]",4.0 µM,0.3 µM,–,–,–,–,–,"MIC [1]: 0.30 µM; MIC ([2]; DSY-565 C. glabrata CI): 0.50 µM; MIC [3]: 0.50 µM; Solubility in water [5]: 10 µg/mL; MIC ([6]; DSY-296 C. albican CI): 0.40 µM; MIC ([7]; Table 3, strain not given, values as in Table 1 (S. cerevisiae BY4741)): 0.30 µM; MIC ([8]; DSY-1764 C. albican mutant erg3/11, AmB-resistant, 36 hours at 37° C.): 50 µM; MIC [9]: 0.40 µM; MIC ([10]; DSY-654 C. albican mutant cdr1/2): 0.50 µM; MIC ([11]; DSY-1751 C. albican mutant erg3): 0.30 µM"
"C[C@@H]1[C@H](O)[C@@H](C)/C=C/C=C/C=C/C=C/C=C/C=C/C=C/[C@H](O[C@@H]2O[C@H](C)[C@@H](O)[C@H](N(CCCN)CCCN)[C@@H]2O)CC2O[C@](O)(C[C@@H](O)C[C@@H](O)[C@H](O)CC[C@@H](O)C[C@@H](O)CC(=O)O[C@H]1C)C[C@H](O)[C@H]2C(=O)N1CCN(C)CC1 [compound 12, 16-(N′-(1-Methylpiperazinyl)carboxamide)-N,N-di-(3-aminopropyl)-AmB]",–,0.2 µM,0.3 µM,0.2 µM,0.3 µM,1 µM,0.4 µM,MIC ([10]; Candida albicans): 0.4 µM
"C[C@@H]1[C@H](O)[C@@H](C)/C=C/C=C/C=C/C=C/C=C/C=C/C=C/[C@H](O[C@@H]2O[C@H](C)[C@@H](O)[C@H](N(CCCN)CCCN)[C@@H]2O)CC2O[C@](O)(C[C@@H](O)C[C@@H](O)[C@H](O)CC[C@@H](O)C[C@@H](O)CC(=O)O[C@H]1C)C[C@H](O)[C@H]2C(=O)NCCCN(C)C [compound 11, 16-(N′-(3-Dimethylaminopropyl)carboxamide)-N,N-di-(3-aminopropyl)-AmB]",–,0.4 µM,0.5 µM,0.3 µM,0.3 µM,1 µM,1 µM,MIC ([6]; Candida albicans): 0.3 µM
"C[C@@H]1[C@H](O)[C@@H](C)/C=C/C=C/C=C/C=C/C=C/C=C/C=C/[C@H](O[C@@H]2O[C@H](C)[C@@H](O)[C@H](N(CCCN)CCCN)[C@@H]2O)C[C@@H]2O[C@](O)(C[C@@H](O)C[C@@H](O)[C@H](O)CC[C@@H](O)C[C@@H](O)CC(=O)O[C@H]1C)C[C@H](O)[C@H]2C(=O)O [compound 3, N,N-Di-(3-aminopropyl)-AmB]",10 µM,0.02 µM and 0.020 µM,0.1 µM,0.2 µM,0.2 µM,1 µM,–,"K+ efflux with cholesterol containing vesicles [12]: indistinguishable from background; times less toxic than AmB (EH50) ([4]; human erythrocytes, relative to AmB (1a)): 2.5 times; solubility ([5]; PBS buffer, pH 7.2, aqueous buffer, kinetic from dmso stock, read-out: Solubility in water): 12 µg/mL; times more active than AmB (MIC) ([7]; Saccharomyces cerevisiae wild type BY4741, relative to AmB): 15 times; MIC ([7]; Saccharomyces cerevisiae, Table 3, strain not given, values as in Table 1 (S. cerevisiae BY4741)): 0.02 µM; MIC ([9]; Candida albicans): 0.2 µM; K+ efflux with ergosterol containing vesicles [13]: observed exclusively with the ergosterol containing vesicles"
